Results from patent publication US5049673A, “Fluorescent indicator dyes for calcium working at long wavelengths” (The Regents of the University of California, priority 1987, dated 1991).
pKd: −log10 of the molar value. Where two headings read alike, the source gives them in different places.

Columns and labels:
[1] = pH 7.03, 100 mM KCl, 20° C; read-out: Apparent dissociation constant for the Ca^2+ complex; cited from earlier work
[2] = pH 7.60, 0.12 M ionic strength, 20°; read-out: Apparent dissociation constant for the Mg^2+ complex (including monoprotonated form); cited from earlier work
[3] = Calibration of [Ca2+] increases produced by UV photolysis of nitr-5 or nitr-7; settings: results not shown
Excerpt: The most obvious difference between the present chelators and the previous tetracarboxylate Ca^2+ chelators is in their wavelengths of fluorescence excitation and emission. The new indicators' similarity to fluoresceins and rhodamines make them optically compatible with almost any fluorometer, fluorescence microscope, or flow cytometer already used for immunofluorescence detection. The fluorescein analogs fluo-1, -2, and -3 can be excited by incandescent illumination or the prominent 488 nm line of an […]. The rhodamine analogs rhod-1 rhod-2 are suited to incandescent illumination, the 531 nm line of a krypton-ion laser, or the 546 nm line of a mercury arc. By contrast, the earlier dyes quin-2 and fura-2 are best excited at 340-350 or 380-390 nm from a xenon lamp. Indo-1 does best with 350-360 nm from a xenon arc or the low-power UV lines of argon or krypton lasers. Optical elements for these UV wavelengths are preferably reflective or are made from quartz, glasses with enhanced UV transmission, or very thin ordinary glass. Plastics or thick (>1 mm) ordinary glass elements generally give too much absorbance or autofluorescence or both. By contrast, even these cheap optical materials are compatible with blue or green excitation.

[4] = room temperature, 0.1 M KCl, no added Mg^2+; read-out: Ca^2+ dissociation constant (Kd) used for FIG. 6; cited from earlier work

Compound	pKd [1]	pKd [2]	Effect of excitation wavelengths on "caged" calcium [3]	pKd [4]
O=C(O)CN(CCOCCOCCN(CC(=O)O)CC(=O)O)CC(=O)O [EGTA, ethylene glycol bis(-beta-aminoethyl ether)-N,N,N',N'-tetraacetic acid]	6.49	2.22		
Cc1ccc(N(CC(=O)O)CC(=O)O)c(OCCOc2cc3cc(-c4ncc(C(=O)O)o4)oc3cc2N(CC(=O)O)CC(=O)O)c1 [fura-2]			the excitation wavelengths began to photolyze the "caged" calcium	6.87
